Source: patent US9145391B2, “Bipyridylaminopyridines as Syk inhibitors” (Merck Sharp & Dohme Corp., priority 2011, dated 2015)
pIC50: −log10 of the molar value.

These compounds were tested against recombinant human GST-Syk (Homo sapiens (Human), UniProt P43405) (assay: Homogeneous Time-Resolved Fluorescence (HTRF) assay for the recombinant human Syk enzyme). Settings: recombinant human GST-Syk 5 pM, ATP 25 μM, read-out: rhSyk IC50.
Assay type: biochemical
Method: Syk inhibition may be determined using the following assay protocol: Homogeneous Time-Resolved Fluorescence (HTRF) Assay for the Recombinant Human Syk Enzyme: A recombinant GST-hSyk fusion protein was used to measure potency of compounds to inhibit human Syk activity. […] To initiate the reaction the biotinylated substrate peptide (250 nM final concentration) that contains the phosphorylation site for Syk was added with magnesium (5 mM final concentration) and ATP (25 μM final concentration). […] Final volume of the quenching solution was 10 μL.

| pIC50 | Structure (SMILES) |
| --- | --- |
| < 5.00 | CCCCCCCCOC(=O)[C@H]1CC[C@H](C(C)(O)c2ccc(-c3cc(C)cc(Nc4cc(C(F)F)ccn4)n3)cn2)CC1 (single isomer, unassigned) [Example 19-11, octyl trans-4-[(1R or 1S)-1-(6-{[4-(difluoromethyl)pyridin-2-yl]amino}-4-methyl-2,3′-bipyridin-6′-yl)-1-hydroxyethyl] cyclohexanecarboxylate] |
| 7.33 | Cc1cc(Nc2cc(C(F)F)ccn2)nc(-c2ccc(C(C)(O)[C@H]3CC[C@H](C(=O)OC4CCCCC4)CC3)nc2)c1 (single isomer, unassigned) [Example 19-12, cyclohexyl trans-4-[(1R or 1S)-1-(6-{[4-(difluoromethyl)pyridin-2-yl]amino}-4-methyl-2,3′-bipyridin-6′-yl)-1-hydroxyethyl] cyclohexanecarboxylate] |
| 8.06 | Cc1cc(Nc2cc(C(F)F)ccn2)nc(-c2ccc(C(C)(O)[C@H]3CC[C@H](C(=O)OC4CCOCC4)CC3)nc2)c1 (single isomer, unassigned) [Example 19-13, tetrahydro-2H-pyran-4-yl trans-4-[(1R or 1S)-1-(6-{[4-(difluoromethyl)pyridin-2-yl]amino}-4-methyl-2,3′-bipyridin-6′-yl)-1-hydroxyethyl] cyclohexanecarboxylate] |

More lines, now with the values behind:

| Structure (SMILES) | pIC50 |
| --- | --- |
| CCCCOC(=O)[C@H]1CC[C@H](C(C)(O)c2ccc(-c3cc(C)cc(Nc4cc(C(F)F)ccn4)n3)cn2)CC1 (single isomer, unassigned) [Example 19-4, butyl trans-4-[(1R or 1S)-1-(6-{[4-(difluoromethyl)pyridin-2-yl]amino}-4-methyl-2,3′-bipyridin-6′-yl)-1-hydroxyethyl] cyclohexanecarboxylate] | 7.19 |
| CCC(C)OC(=O)[C@H]1CC[C@H](C(C)(O)c2ccc(-c3cc(C)cc(Nc4cc(C(F)F)ccn4)n3)cn2)CC1 (single isomer, unassigned) [Example 19-5, butan-2-yl trans-4-[(1R or 1S)-1-(6-{[4-(difluoromethyl)pyridin-2-yl]amino}-4-methyl-2,3′-bipyridin-6′-yl)-1-hydroxyethyl] cyclohexanecarboxylate] | 8.15 |
| Cc1cc(Nc2cc(C(F)F)ccn2)nc(-c2ccc(C(C)(O)[C@H]3CC[C@H](C(=O)OCC(C)C)CC3)nc2)c1 (single isomer, unassigned) [Example 19-6, 2-methylpropyl trans-4-[(1R or 1S)-1-(6-{[4-(difluoromethyl)pyridin-2-yl]amino}-4-methyl-2,3′-bipyridin-6′-yl)-1-hydroxyethyl] cyclohexanecarboxylate] | 7.13 |
| CCCCCOC(=O)[C@H]1CC[C@H](C(C)(O)c2ccc(-c3cc(C)cc(Nc4cc(C(F)F)ccn4)n3)cn2)CC1 (single isomer, unassigned) [Example 19-7, pentyl trans-4-[(1R or 1S)-1-(6-{[4-(difluoromethyl)pyridin-2-yl]amino}-4-methyl-2,3′-bipyridin-6′-yl)-1-hydroxyethyl] cyclohexanecarboxylate] | 7.00 |
| Cc1cc(Nc2cc(C(F)F)ccn2)nc(-c2ccc(C(C)(O)[C@H]3CC[C@H](C(=O)OCC(C)(C)C)CC3)nc2)c1 (single isomer, unassigned) [Example 19-8, 2,2-dimethylpropyl trans-4-[(1R or 1S)-1-(6-{[4-(difluoromethyl)pyridin-2-yl]amino}-4-methyl-2,3′-bipyridin-6′-yl)-1-hydroxyethyl] cyclohexanecarboxylate] | 6.82 |
| CCCCCCOC(=O)[C@H]1CC[C@H](C(C)(O)c2ccc(-c3cc(C)cc(Nc4cc(C(F)F)ccn4)n3)cn2)CC1 (single isomer, unassigned) [Example 19-9, hexyl trans-4-[(1R or 1S)-1-(6-{[4-(difluoromethyl)pyridin-2-yl]amino}-4-methyl-2,3′-bipyridin-6′-yl)-1-hydroxyethyl] cyclohexanecarboxylate] | 6.72 |
